Reference: paper PMC5438989, “Protein Biochemistry and Expression Regulation of Cadmium/Zinc Pumping ATPases in the Hyperaccumulator Plants Arabidopsis halleri and Noccaea caerulescens” (Frontiers in Plant Science, 2017)

Molecular target: T1, NcHMA4 (=TcHMA4) (Noccaea caerulescens, UniProt Q69AX6)
T1 construct: 60-70 kD band on Western blot, so possibly processed; no added tag
T1 sequence (Q69AX6 1-1186): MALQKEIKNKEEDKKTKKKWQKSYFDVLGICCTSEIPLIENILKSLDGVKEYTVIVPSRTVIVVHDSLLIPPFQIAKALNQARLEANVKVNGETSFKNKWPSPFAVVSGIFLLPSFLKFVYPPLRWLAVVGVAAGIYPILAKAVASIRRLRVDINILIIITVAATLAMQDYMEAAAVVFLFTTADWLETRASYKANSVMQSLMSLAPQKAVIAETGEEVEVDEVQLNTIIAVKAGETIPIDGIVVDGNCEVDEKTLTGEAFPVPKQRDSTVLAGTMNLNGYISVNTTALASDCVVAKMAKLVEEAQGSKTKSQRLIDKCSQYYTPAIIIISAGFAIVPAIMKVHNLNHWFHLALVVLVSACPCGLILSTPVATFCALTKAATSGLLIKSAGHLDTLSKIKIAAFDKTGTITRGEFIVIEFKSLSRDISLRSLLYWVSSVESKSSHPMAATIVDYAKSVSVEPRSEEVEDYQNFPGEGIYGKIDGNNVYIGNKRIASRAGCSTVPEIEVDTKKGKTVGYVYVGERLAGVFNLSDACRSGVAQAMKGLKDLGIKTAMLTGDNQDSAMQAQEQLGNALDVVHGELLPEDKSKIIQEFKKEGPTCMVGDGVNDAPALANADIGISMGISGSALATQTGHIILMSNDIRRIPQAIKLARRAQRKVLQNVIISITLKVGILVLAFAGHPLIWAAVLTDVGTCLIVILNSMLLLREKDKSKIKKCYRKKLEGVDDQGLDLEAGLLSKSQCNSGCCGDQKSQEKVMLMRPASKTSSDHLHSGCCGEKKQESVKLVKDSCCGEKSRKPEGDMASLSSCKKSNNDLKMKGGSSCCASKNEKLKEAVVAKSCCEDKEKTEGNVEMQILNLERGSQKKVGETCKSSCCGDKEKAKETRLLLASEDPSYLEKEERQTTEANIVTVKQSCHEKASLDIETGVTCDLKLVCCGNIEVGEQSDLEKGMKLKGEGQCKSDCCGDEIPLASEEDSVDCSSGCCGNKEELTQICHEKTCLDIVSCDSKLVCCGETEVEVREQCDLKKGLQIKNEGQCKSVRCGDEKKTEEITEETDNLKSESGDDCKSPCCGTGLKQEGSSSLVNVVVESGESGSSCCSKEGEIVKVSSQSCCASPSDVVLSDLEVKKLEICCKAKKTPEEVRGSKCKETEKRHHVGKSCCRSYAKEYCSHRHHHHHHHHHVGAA
Experiment: ATPase assay by phosphate release; F5 electrochromic dye fluorescence
Format: biochemical
Conditions: Cd2+ or Zn2+ activated; dye assay: 5 mM ATP, protein in phosphatidylcholine vesicles, 20 °C

SMILES: Nc1ncnc2c1ncn2[C@@H]1O[C@H](COP(=O)(O)OP(=O)(O)OP(=O)(O)O)[C@@H](O)[C@H]1O [ATP]
- ATPase assay by phosphate release; F5 electrochromic dye fluorescence: Addition of ATP caused dropping of fluorescence when added to an assay containing active enzyme
